# Results taken from patent US9491943B2, “Bioengineering strain for production of novel microorganism-originated fungicides and uses thereof” (SHANGHAI JIAOTONG UNIVERSITY, priority 2011, dated 2016).
# System: rhizoctonia solani
# Test: Antifungal rate (inhibition of hypha growth) on potato glucose culture medium plates
# Type: cell-based
# Conditions: 16 mg/L in potato glucose culture medium, 28° C.
smiles,measurement,setting,value
NC(=O)c1cccc2nc3ccccc3nc12 [phenazine-1-carboxamide],antifungal activity (antifungal rate) against rhizoctonia solani,acidity (pH) 4.0,65%
same,antifungal activity (antifungal rate) against rhizoctonia solani,acidity (pH) 5.0,69%
same,antifungal activity (antifungal rate) against rhizoctonia solani,acidity (pH) 6.0,73.6%
same,antifungal activity (antifungal rate) against rhizoctonia solani,acidity (pH) 7.0,80.1%
same,antifungal activity (antifungal rate) against rhizoctonia solani,acidity (pH) 8.0,90%
